These results are taken from patent US20210070748A1, “INHIBITORS OF BRUTONS TYROSINE KINASE” (Pharmacyclics LLC, priority 2015, published 2021).

Holding throughout (type): biochemical
Settings in all cases: D-compounds panel data; 1 μM ATP

One assay addresses SRC (Homo sapiens, UniProt P12931). Kind of assay: Inhibition of a panel of kinases, in vitro HotSpot kinase assay: SRC. On the procedure: (§1) The degree of inhibition of a panel of kinases is determined using the in vitro HotSpot kinase assay (purified enzymes, ^33P-ATP, an appropriate substrate and 1 μM ATP).
For a further assay, the target named is T1, ITK (Homo sapiens, UniProt Q08881).
T1 sequence (Q08881 1-620): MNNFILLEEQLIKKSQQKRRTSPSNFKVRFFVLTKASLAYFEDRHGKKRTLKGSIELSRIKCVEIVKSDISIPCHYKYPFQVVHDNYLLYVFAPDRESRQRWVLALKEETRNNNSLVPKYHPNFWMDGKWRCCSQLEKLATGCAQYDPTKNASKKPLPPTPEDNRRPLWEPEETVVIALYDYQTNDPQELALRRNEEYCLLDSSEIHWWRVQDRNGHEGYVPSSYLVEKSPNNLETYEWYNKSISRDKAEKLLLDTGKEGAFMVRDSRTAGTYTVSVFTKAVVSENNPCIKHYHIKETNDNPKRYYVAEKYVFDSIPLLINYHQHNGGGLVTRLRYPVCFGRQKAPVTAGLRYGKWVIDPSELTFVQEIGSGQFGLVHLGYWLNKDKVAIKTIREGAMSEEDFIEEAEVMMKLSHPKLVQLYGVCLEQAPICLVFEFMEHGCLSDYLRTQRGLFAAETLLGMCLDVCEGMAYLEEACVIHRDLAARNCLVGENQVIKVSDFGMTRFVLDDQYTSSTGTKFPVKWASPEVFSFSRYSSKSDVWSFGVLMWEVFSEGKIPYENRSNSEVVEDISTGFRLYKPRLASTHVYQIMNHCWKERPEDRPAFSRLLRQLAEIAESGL
Kind of assay: Inhibition of a panel of kinases, in vitro HotSpot kinase assay: ITK. How it is done:
as §1

The next assay concerns the target T2, TEC (Homo sapiens, UniProt P42680).
T2 sequence (P42680 1-631): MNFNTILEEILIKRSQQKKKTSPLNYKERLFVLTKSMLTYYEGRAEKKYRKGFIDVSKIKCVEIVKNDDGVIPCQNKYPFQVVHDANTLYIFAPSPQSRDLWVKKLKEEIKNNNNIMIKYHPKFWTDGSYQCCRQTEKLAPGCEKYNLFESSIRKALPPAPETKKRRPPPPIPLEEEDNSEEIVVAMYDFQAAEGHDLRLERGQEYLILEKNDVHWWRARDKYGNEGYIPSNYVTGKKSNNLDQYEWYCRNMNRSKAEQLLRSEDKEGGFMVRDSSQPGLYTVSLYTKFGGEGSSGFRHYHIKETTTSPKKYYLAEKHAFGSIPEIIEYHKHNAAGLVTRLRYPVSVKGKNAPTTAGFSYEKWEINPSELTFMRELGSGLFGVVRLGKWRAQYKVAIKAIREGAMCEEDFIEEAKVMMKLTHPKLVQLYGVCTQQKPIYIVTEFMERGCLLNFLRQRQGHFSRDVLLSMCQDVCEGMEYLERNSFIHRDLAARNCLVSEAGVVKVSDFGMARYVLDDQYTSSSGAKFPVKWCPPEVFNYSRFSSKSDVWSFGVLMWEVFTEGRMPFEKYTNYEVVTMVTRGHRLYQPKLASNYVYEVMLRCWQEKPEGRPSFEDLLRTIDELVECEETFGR
Kind of assay: Inhibition of a panel of kinases, in vitro HotSpot kinase assay: TEC. How it is done:
as §1

Chain of SRC (P12931 whole entry): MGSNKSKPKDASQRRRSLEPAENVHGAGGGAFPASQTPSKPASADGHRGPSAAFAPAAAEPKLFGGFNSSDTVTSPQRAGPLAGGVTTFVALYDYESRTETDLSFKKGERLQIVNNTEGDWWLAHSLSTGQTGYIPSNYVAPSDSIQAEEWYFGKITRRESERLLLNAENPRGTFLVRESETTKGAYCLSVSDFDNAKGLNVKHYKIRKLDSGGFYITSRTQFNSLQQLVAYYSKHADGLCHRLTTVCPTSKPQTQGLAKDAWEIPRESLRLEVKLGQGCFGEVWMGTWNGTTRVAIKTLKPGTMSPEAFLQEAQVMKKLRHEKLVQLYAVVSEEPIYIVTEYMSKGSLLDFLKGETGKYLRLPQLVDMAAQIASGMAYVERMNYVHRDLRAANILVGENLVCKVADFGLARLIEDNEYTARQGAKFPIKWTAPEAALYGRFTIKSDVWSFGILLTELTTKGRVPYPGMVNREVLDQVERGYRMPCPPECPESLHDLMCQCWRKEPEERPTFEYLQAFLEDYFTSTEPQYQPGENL

Turning to `Cn1cc(Nc2nc(N3CCC[C@@H]4[C@H]3CCCN4C(=O)c3ccc(C4CC4)cc3)cnc2C(N)=O)cn1` [Example D-46, 5-I[(4aR,8aR)-5-(4-cyclopropylbenzoyl)-decahydro-1,5-naphthyridin-1-yl]-3-[(1-methyl-1H-pyrazol-4-yl)amino]pyrazine-2-carboxamide], the results for the IC50 on SRC, on ITK and at TEC were 100 to 1000 nM, 1000 to 10000 nM and 10 to 100 nM, respectively.
In the case of `C[C@H]1C[C@@H](NC(=O)c2ccc(C3CC3)cc2)CN(c2cnc(C(N)=O)c(Nc3cnn(C)c3)n2)C1` [Example D-30, 5-[(3R,5S)-3-(4-cyclopropylbenzamido)-5-methylpiperidin-1-yl]-3-[(1-methyl-1H-pyrazol-4-yl)amino]pyrazine-2-carboxamide], the 50% inhibitory concentration (IC50) – broadly, the concentration at which inhibition is half-maximal – at SRC was 100 to 1000 nM; against ITK it was 1000 to 10000 nM; at TEC it was 10 to 100 nM.
For the compound `C[C@@H]1[C@H](NC(=O)c2ccc(C3CC3)cc2)CCCN1c1cnc(C(N)=O)c(Nc2cnn(CC3CCC(F)(F)CC3)c2)n1` [Example D-321, 5-[(2R,3R)-3-(4-cyclopropylbenzamido)-2-methylpiperidin-1-yl]-3-({1-[(4,4-difluorocyclohexyl)methyl]-1H-pyrazol-4-yl}amino)pyrazine-2-carboxamide], the IC50 against SRC fell in the range of 100 to 1000 nM; on ITK it was 100 to 1000 nM; at TEC it was 10 to 100 nM.
For `C[C@@H]1[C@H](NC(=O)c2ccc(C(F)(F)F)nc2)CCCN1c1cnc(C(N)=O)c(Nc2cnn(C)c2)n1` [Example D-91, 3-[(1-methyl-1H-pyrazol-4-yl)amino]-5-[(2R,3R)-2-methyl-3-[6-(trifluoromethyl)pyridine-3-amido]piperidin-1-yl]pyrazine-2-carboxamide], the half-maximal inhibitory concentration (IC50) lay within 10 to 100 nM on SRC, 100 to 1000 nM against ITK and 10 to 100 nM at TEC.
